In patent US11267965B2, “Polymeric materials for biomedical applications” (Aleo BME, Inc., priority 2015, dated 2022):

Assays:
PC12 cells = test: Quantification of global DNA methylation; type: cell-based, rat; conditions: second day of culture
Schwann cells [1] = test: Schwann cell migration, microchannel-based migration assay (live cell imaging); conditions: left reservoir 4 mg/L folate, right reservoir 50 mg/L folate; channel width 200 μm
Schwann cells [2] = test: Quantification of global DNA methylation; type: cell-based; conditions: second day of culture
[3] = tested on: MAP-2 protein expression in PC12 cells; test: Western blot analysis of microtubule-associated protein-2 (MAP-2) in PC12 cells; type: cell-based, rat; conditions: 14 days
PC-12 cells = test: PC12 cell neurite outgrowth assay; type: cell-based, rat
Schwann cells [4] = test: Schwann cell migration, transwell model; type: cell-based; conditions: 4 hr migration, compared to 4, 100 and 200 mg/L folate

Nc1nc2ncc(CNc3ccc(C(=O)N[C@@H](CCC(=O)O)C(=O)O)cc3)nc2c(=O)[nH]1 [folic acid]
folate concentration with highest global DNA methylation (PC12 cells): 50 mg/L | Schwann cell migration direction in microchannels (Schwann cells [1]): migration of Schwann cell from low folate medium to high folate medium | folate concentration with highest global DNA methylation (Schwann cells [2]): 50 mg/L | MAP-2 protein expression relative to control medium (1.3 mg/L folate) ([3]; 50 mg/L folate, in the presence of NGF (50 ng/mL)): 2.56 folds | MAP-2 protein expression relative to control sample (1.3 mg/L folate) ([3]; 50 and 100 mg/L folate, in the absence of NGF): 2.22-2.30 folds | neurite outgrowth (average neurite length) (PC-12 cells; 50-100 mg/L folate with 50 ng/mL NGF, day 7, control medium 1.3 mg/L folate <100 μm): > 150 μm | folic acid concentration with highest neurite outgrowth (PC-12 cells; day 3 of culture, neural differentiation medium with 5 ng/ml neural growth factor): 50 mg/L | PC-12 neurite outgrowth rate (PC-12 cells; folic acid supplemented medium): promote PC-12 neurite outgrowth rate in a dose-dependent manner | optimal folic acid supplement concentration for promoting PC-12 differentiation and neurite outgrowth (PC-12 cells; within the concentrations investigated): 50 to 100 mg/L | folate concentration of medium toward which the highest number of Schwann cells migrated (Schwann cells [4]): 50 mg/L
